Data published in patent publication US20260297081A1, “COMPOUNDS AND METHODS OF TREATING CANCERS” (Cullgen Inc., priority 2023, published 2026).

Columns and labels:
MCF7 cells = assay: Anti-proliferation (viability) of MCF7 cells (Table 7, FIG. 2B); format: cell-based; conditions: Homo sapiens, MCF7, MCF7 cells, 3-6 days, 10-point serial dilution; read-out: GI IC50 in MCF-7
Calu-1 cells = assay: Anti-proliferation (viability) of NSCLC Calu-1 cells, 3 days (Table 7, FIG. 2B); format: cell-based; conditions: Homo sapiens, 72 h; Calu-1 cells, 3 days, 10-point serial dilution; read-out: GI IC50 in Calu-1
Outline: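 Treatment length differs by line: Calu-1 cells receive degrader for 3 days, T47D cells for 6 days, each over a 10-point dilution series. A warhead-modified analogue with unchanged DDB1 binder and linker served as the non-CDK4-binding control.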

Compound | IC50 (MCF7 cells) [nM] | IC50 (Calu-1 cells) [nM]
[2H]C([2H])([2H])Nc1ccc(C(=O)Nc2ccc(N(C)C)nn2)c(NC2CCN(C(=O)CN(C)C3CCN(c4ccc(Nc5ncc6c(C)c(C(C)=O)c(=O)n(C7CCCC7)c6n5)nc4)CC3)CC2)n1 [CPD-463, 2-((1-(N-(1-(6-((6-acetyl-8-cyclopentyl-5-methyl-7-oxo-7,8-dihydropyrido[2,3-d]pyrimidin-2-yl)amino)pyridin-3-yl)piperidin-4-yl)-N-methylglycyl)piperidin-4-yl)amino)-N-(6-(dimethylamino)pyridazin-3-yl)-6-((methyl-d3)amino)nicotinamide] | < 50 | ≤ 10
CC(=O)c1c(C)c2cnc(Nc3ccc(CN4CCN(CC(=O)NC5CC(Nc6nc(NC(C)C)ccc6C(=O)Nc6ccc(N(C)C)nn6)C5)CC4)cn3)nc2n(C2CCCC2)c1=O (centres unmarked) [CPD-475, 2-((3-(2-(4-((6-((6-acetyl-8-cyclopentyl-5-methyl-7-oxo-7,8-dihydropyrido[2,3-d]pyrimidin-2-yl)amino)pyridin-3-yl)methyl)piperazin-1-yl)acetamido)cyclobutyl)amino)-N-(6-(dimethylamino)pyridazin-3-yl)-6-(isopropylamino)nicotinamide] | > 100 | ≤ 10
CC(=O)c1c(C)c2cnc(Nc3ccc(N4CCN(C5CCN(C(=O)N6CC7(CCC(Nc8nc(NC(C)C)ccc8C(=O)Nc8ccc(N(C)C)nn8)C7)C6)C5)CC4)cn3)nc2n(C2CCCC2)c1=O (centres unmarked) [CPD-545, 2-((2-(3-(4-(6-((6-acetyl-8-cyclopentyl-5-methyl-7-oxo-7,8-dihydropyrido[2,3-d]pyrimidin-2-yl)amino)pyridin-3-yl)piperazin-1-yl)pyrrolidine-1-carbonyl)-2-azaspiro[3.4]octan-6-yl)amino)-N-(6-(dimethylamino)pyridazin-3-yl)-6-(isopropylamino)nicotinamide] | > 100 | 10 to 50
CC(=O)c1c(C)c2cnc(Nc3ccc(CN4CCN(CC(=O)N5CCC6(CCC(Nc7nc(NC(C)C)ccc7C(=O)Nc7cc8n(n7)CCC8)C6)C5)CC4)cn3)nc2n(C2CCCC2)c1=O (centres unmarked) [CPD-549, 2-((2-(2-(4-((6-((6-acetyl-8-cyclopentyl-5-methyl-7-oxo-7,8-dihydropyrido[2,3-d]pyrimidin-2-yl)amino)pyridin-3-yl)methyl)piperazin-1-yl)acetyl)-2-azaspiro[4.4]nonan-7-yl)amino)-N-(5,6-dihydro-4H-pyrrolo[1,2-b]pyrazol-2-yl)-6-(isopropylamino)nicotinamide] | < 50 | ≤ 10
CNc1ccc(C(=O)Nc2cc(C)on2)c(NC2CC(CNC(=O)CN3CCN(c4ccc(Nc5ncc6c(C)c(C(C)=O)c(=O)n(C7CCCC7)c6n5)nc4)CC3)C2)n1 (centres unmarked) [CPD-281, 2-((3-((2-(4-(6-((6-acetyl-8-cyclopentyl-5-methyl-7-oxo-7,8-dihydropyrido[2,3-d]pyrimidin-2-yl)amino)pyridin-3-yl)piperazin-1-yl)acetamido)methyl)cyclobutyl)amino)-6-(methylamino)-N-(5-methylisoxazol-3-yl)nicotinamide] | > 100 | 10 to 50
CC(=O)c1c(C)c2cnc(Nc3ccc(N4CCN(CC(=O)NC5CC(Nc6nc(NC(C)C)ccc6C(=O)Nc6cn(C)c(C7CC7)n6)C5)CC4)cn3)nc2n(C2CCCC2)c1=O (centres unmarked) [CPD-288, 2-((3-(2-(4-(6-((6-acetyl-8-cyclopentyl-5-methyl-7-oxo-7,8-dihydropyrido[2,3-d]pyrimidin-2-yl)amino)pyridin-3-yl)piperazin-1-yl)acetamido)cyclobutyl)amino)-N-(2-cyclopropyl-1-methyl-1H-imidazol-4-yl)-6-(isopropylamino)nicotinamide] | > 100 | ≥ 50
CC(=O)c1cc2cnc(Nc3ccc(N4CCN(C5CCN(C(=O)[C@H]6CC[C@H](Nc7nc(NC(C)C)ccc7C(=O)Nc7ccc(N(C)C)nn7)CC6)C5)CC4)cn3)nc2n(C2CCCC2)c1=O (stereo partly drawn) [CPD-560, 2-((trans-4-(3-(4-(6-((6-acetyl-8-cyclopentyl-7-oxo-7,8-dihydropyrido[2,3-d]pyrimidin-2-yl)amino)pyridin-3-yl)piperazin-1-yl)pyrrolidine-1-carbonyl)cyclohexyl)amino)-N-(6-(dimethylamino)pyridazin-3-yl)-6-(isopropylamino)nicotinamide] | > 100 | ≤ 10
CC(=O)c1c(C)c2cnc(Nc3ccc(CN4CCN(CC(=O)N5CCC(Nc6nc(NC(C)C)ccc6C(=O)Nc6cn7c(n6)CCC7)CC5)CC4)cn3)nc2n(C2CCCC2)c1=O [CPD-564, 2-((1-(2-(4-((6-((6-acetyl-8-cyclopentyl-5-methyl-7-oxo-7,8-dihydropyrido[2,3-d]pyrimidin-2-yl)amino)pyridin-3-yl)methyl)piperazin-1-yl)acetyl)piperidin-4-yl)amino)-N-(6,7-dihydro-5H-pyrrolo[1,2-a]imidazol-2-yl)-6-(isopropylamino)nicotinamide] | > 100 | 10 to 50
[2H]C([2H])([2H])Nc1ccc(C(=O)Nc2cn(C)c(C3CC3)n2)c(NC2CCC(NC(=O)CN3CCN(c4ccc(Nc5ncc6c(C)c(C(C)=O)c(=O)n(C7CCCC7)c6n5)nc4)CC3)C2)n1 (centres unmarked) [CPD-285, 2-((3-(2-(4-(6-((6-acetyl-8-cyclopentyl-5-methyl-7-oxo-7,8-dihydropyrido[2,3-d]pyrimidin-2-yl)amino)pyridin-3-yl)piperazin-1-yl)acetamido)cyclopentyl)amino)-N-(2-cyclopropyl-1-methyl-1H-imidazol-4-yl)-6-((methyl-d3)amino)nicotinamide] | > 100 | 10 to 50
CC(=O)c1c(C)c2cnc(Nc3ccc(N4CCN(CC(=O)NC5CC(Nc6nc(NC(C)C)ccc6C(=O)Nc6ccc(N(C)C)nn6)C5)CC4)cn3)nc2n(C2CCCC2)c1=O (centres unmarked) [CPD-280, 2-((3-(2-(4-(6-((6-acetyl-8-cyclopentyl-5-methyl-7-oxo-7,8-dihydropyrido[2,3-d]pyrimidin-2-yl)amino)pyridin-3-yl)piperazin-1-yl)acetamido)cyclobutyl)amino)-N-(6-(dimethylamino)pyridazin-3-yl)-6-(isopropylamino)nicotinamide] | 50 to 100 | ≤ 10
[2H]C([2H])([2H])Nc1ccc(C(=O)Nc2ccc(N(C)C)nn2)c(NC2CC3(C2)CN(C(=O)CCN2CCN(c4ccc(Nc5ncc6c(C)c(C(C)=O)c(=O)n(C7CCCC7)c6n5)nc4)CC2(C)C)C3)n1 [CPD-458, 2-((2-(3-(4-(6-((6-acetyl-8-cyclopentyl-5-methyl-7-oxo-7,8-dihydropyrido[2,3-d]pyrimidin-2-yl)amino)pyridin-3-yl)-2,2-dimethylpiperazin-1-yl)propanoyl)-2-azaspiro[3.3]heptan-6-yl)amino)-N-(6-(dimethylamino)pyridazin-3-yl)-6-((methyl-d3)amino)nicotinamide] | > 100 | ≤ 10
CC(=O)c1c(C)c2cnc(Nc3ccc(N4CCN(CC(=O)NC5CCC(Nc6nc(NC(C)C)ccc6C(=O)Nc6cn(C)c(C7CC7)n6)C5)CC4)cn3)nc2n(C2CCCC2)c1=O (centres unmarked) [CPD-284, 2-((3-(2-(4-(6-((6-acetyl-8-cyclopentyl-5-methyl-7-oxo-7,8-dihydropyrido[2,3-d]pyrimidin-2-yl)amino)pyridin-3-yl)piperazin-1-yl)acetamido)cyclopentyl)amino)-N-(2-cyclopropyl-1-methyl-1H-imidazol-4-yl)-6-(isopropylamino)nicotinamide] | > 100 | ≤ 10
CC(=O)c1c(C)c2cnc(Nc3ccc(N4CCC(N5CCC[C@H]5C(=O)NC5CC6(C5)CC(Nc5nc(NC(C)C)ccc5C(=O)Nc5ccc(N(C)C)nn5)C6)CC4)cn3)nc2n(C2CCCC2)c1=O (stereo partly drawn) [CPD-543, (S)-2-((6-(1-(1-(6-((6-acetyl-8-cyclopentyl-5-methyl-7-oxo-7,8-dihydropyrido[2,3-d]pyrimidin-2-yl)amino)pyridin-3-yl)piperidin-4-yl)pyrrolidine-2-carboxamido)spiro[3.3]heptan-2-yl)amino)-N-(6-(dimethylamino)pyridazin-3-yl)-6-(isopropylamino)nicotinamide] | < 50 | ≤ 10
[2H]C([2H])([2H])Nc1ccc(C(=O)Nc2ccc(N(C)C)nn2)c(NC2CC3(C2)CN(C(=O)CN2CCN(C(C)c4ccc(Nc5ncc6c(C)c(C(C)=O)c(=O)n(C7CCCC7)c6n5)nc4)CC2)C3)n1 (centres unmarked) [CPD-488, 2-((2-(2-(4-(1-(6-((6-acetyl-8-cyclopentyl-5-methyl-7-oxo-7,8-dihydropyrido[2,3-d]pyrimidin-2-yl)amino)pyridin-3-yl)ethyl)piperazin-1-yl)acetyl)-2-azaspiro[3.3]heptan-6-yl)amino)-N-(6-(dimethylamino)pyridazin-3-yl)-6-((methyl-d3)amino)nicotinamide] | < 50 | ≤ 10
CC(=O)c1c(C)c2cnc(Nc3ccc(N4CCN(CCC(=O)N5CC6(CC(Nc7nc(NC(C)C)ccc7C(=O)Nc7ccc(N(C)C)nn7)C6)C5)C(C)(C)C4)cn3)nc2n(C2CCCC2)c1=O [CPD-459, 2-((2-(3-(4-(6-((6-acetyl-8-cyclopentyl-5-methyl-7-oxo-7,8-dihydropyrido[2,3-d]pyrimidin-2-yl)amino)pyridin-3-yl)-2,2-dimethylpiperazin-1-yl)propanoyl)-2-azaspiro[3.3]heptan-6-yl)amino)-N-(6-(dimethylamino)pyridazin-3-yl)-6-(isopropylamino)nicotinamide] | > 100 | ≤ 10
CC(=O)c1c(C)c2cnc(Nc3ccc(N4CCC(N5CCC(C(=O)NC6CC(Nc7nc(NC(C)C)ccc7C(=O)Nc7ccc(N(C)C)nn7)C6)C5)CC4)cn3)nc2n(C2CCCC2)c1=O (centres unmarked) [CPD-460, 2-((3-(1-(1-(6-((6-acetyl-8-cyclopentyl-5-methyl-7-oxo-7,8-dihydropyrido[2,3-d]pyrimidin-2-yl)amino)pyridin-3-yl)piperidin-4-yl)pyrrolidine-3-carboxamido)cyclobutyl)amino)-N-(6-(dimethylamino)pyridazin-3-yl)-6-(isopropylamino)nicotinamide] | > 100 | ≤ 10
